Structures can show the parent of a compound that is named as a salt.

One experiment deals with T1, human factor Xa (Homo sapiens, UniProt P00742).
T1 construct: 0.2-0.5 nM human thrombin or human factor Xa; purchased Enzyme Research Laboratories, South Bend, Ind
The experiment in a line: Inhibition of Factor Xa hydrolysis of chromogenic substrate S2222 (Ki). The format is biochemical. The following applies: S2222, pH 7.5. How it is done: (§1) The effectiveness of compounds of the present invention as inhibitors of blood coagulation proteases was determined using purified human proteases and synthetic substrates following procedures similar to those described in Kettner et al. (1990).
(§2) For these assays, the rate of enzymatic (thrombin, Factor Xa, and Factor VIIa) hydrolysis of chromogenic substrates (S2238 (H-D-Phe-Pip-Arg-pNA), S2222, and S2288, respectively; Kabi Pharmacia, Franklin, Ohio) was measured both in the absence and presence of compounds of the present invention. […] A decrease in the rate of absorbance change at 405 nm in the presence of inhibitor is indicative of enzyme inhibition. The results of this assay are expressed as inhibitory constant, Ki.
(§3) Thrombin and Xa determinations were made in 0.10M sodium phosphate buffer, pH 7.5, containing 0.20M NaCl, and 0.5% PEG 8000. VIIa determinations were made in 0.05M tris buffer, pH 7.6, containing 0.10M NaCl, 4 mM CaCl2, and 0.1% bovine serum albumin.
(§4) Reactions were allowed to go for 30 minutes and the velocities (rate of absorbance change vs time) were measured in the time frame of 25-30 minutes. The following relationship was used to calculate Ki values. [formula] where: vo is the velocity of the control in the absence of inhibitor;
(§5) vs is the velocity in the presence of inhibitor;
(§6) I is the concentration of inhibitor;
(§7) Ki is the dissociation constant of the enzyme: inhibitor complex;
(§8) S is the concentration of substrate;
(§9) Km is the Michaelis constant.

The target in another experiment is T2, human thrombin (Homo sapiens, UniProt P00734).
T2 construct: 0.2-0.5 nM human thrombin or human factor Xa; purchased Enzyme Research Laboratories, South Bend, Ind
The experiment in a line: Inhibition of thrombin hydrolysis of chromogenic substrate S2238 (Ki). Type of experiment: biochemical. The following applies: S2238, pH 7.5. The procedure: as §1, §2, §3, §4, §5, §6, §7, §8, §9

T1 sequence (P00742 235-488 limits assumed): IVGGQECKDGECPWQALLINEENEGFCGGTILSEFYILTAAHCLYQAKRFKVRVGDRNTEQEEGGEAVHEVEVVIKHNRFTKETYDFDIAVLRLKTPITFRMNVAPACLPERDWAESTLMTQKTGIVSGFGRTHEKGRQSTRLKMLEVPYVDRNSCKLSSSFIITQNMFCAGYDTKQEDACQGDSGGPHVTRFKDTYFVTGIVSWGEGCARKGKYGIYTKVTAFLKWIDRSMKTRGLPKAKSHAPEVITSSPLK
T1 sequence (P00742 41-179 limits assumed): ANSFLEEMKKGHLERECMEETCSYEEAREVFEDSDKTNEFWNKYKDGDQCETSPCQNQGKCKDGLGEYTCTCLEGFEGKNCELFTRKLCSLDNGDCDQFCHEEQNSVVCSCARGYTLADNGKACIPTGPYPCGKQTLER

In the case of `CNC(Cc1ccccc1)C(=O)N1CCCC1C(=O)NC(Cc1cccc(C#N)c1)B1OC2CC3CC(C3(C)C)C2(C)O1` (centres unmarked) [Example 25, N--CH3 --(D)Phe--Pro--boroPhe(m-CN)--C10 H16.HCl], the Ki at human factor Xa and on human thrombin was below 500 nM throughout.
Regarding “Boc--(D)Thiazolylalanine-Pro--boroPhe(m-CN)--C10 H16 [Example 27]”, the Ki on human factor Xa and on human thrombin was below 500 nM in each case.
For `CN(C)C(Cc1ccccc1)C(=O)N1CCCC1C(=O)NC(Cc1cccc(C#N)c1)B(O)O` (single isomer, unassigned; isomer i) [Example 20, N,N-(CH3)2 --(D)Phe--Pro--boroPhe--(m-CN)--OH.HCl (ISOMER I)], the inhibitory constant (Ki) on human factor Xa and at human thrombin was below 500 nM throughout.
`CC1(C)C2CC3OB(C(Cc4cccc(C#N)c4)NC(=O)C4CCCN4C(=O)[C@@H](Cc4cccnc4)NS(C)(=O)=O)OC3(C)C1C2` (some centres unmarked) [Example 32, Ms--(D)3-Pyridylalanine-Pro--boroPhe(m-CN)--C10 H16]: the inhibition constant Ki on human factor Xa and at human thrombin was below 500 nM each time.
In turn, `CC(C)(C)OC(=O)N[C@H](Cc1ccccc1)C(=O)N1CCC[C@H]1C(=O)NC(CC1CCC(N)CC1)B1OC2CC3CC(C3(C)C)C2(C)O1` (some centres unmarked) [Example 125, Boc--(D)Phe--Pro--NH--CH[CH2 (4-amino-cyclohexyl)]BO2 --C10 H16] came in with an inhibitory constant (Ki) on human thrombin below 500 nM.
On the same count and under the same terms, the figure for “Boc--(D)Phe--Pro--NH--CH[4-amino-cyclohexyl]BO2 --C10 H16 [Example 126]” is below 500 nM.
Still for that read-out and setting: then `CC1(C)C2CC3OB(C(CCCNS(C)(=O)=O)NC(=O)[C@@H]4CCCN4C(=O)[C@H](N)Cc4ccccc4)OC3(C)C1C2` (some centres unmarked) [Example 114, H--(D)Phe--Pro--boroOrn(N-Methanesulfonyl)-C10 H16.HCl], with below 500 nM; and `COCCCC(NC(=O)[C@@H]1CCCN1C(=O)[C@@H](Cc1ccccc1)NC(C)C)B1OC2CC3CC(C3(C)C)C2(C)O1` (some centres unmarked) [Example 143, (CH3)2 CH--(D)--Phe--Pro--boroGly[(CH2)3 --OCH3]--C10 H16], with below 500 nM; and “Cbz--(D)Phe--Pro--boroIrg(CH3)--C10 H16.HBr [Example 51]”, with below 500 nM.
On to `CN(CC(=O)NC(CCCNC=N)B(O)O)C(=O)C(Cc1ccccc1)NS(C)(=O)=O` (centres unmarked) [Example 68, Ms--(D)Phe--Sar--boroOrn(CH=NH)--OH.HCI], for which the Ki at human thrombin is below 500 nM.
On human thrombin, `CN(CC(=O)NC(CCCNC=N)B(O)O)C(=O)C(Cc1ccccc1)NC(=O)OC(C)(C)C` (centres unmarked) [Example 70, Boc--(D)Phe--Sar--boroOrn(CH=NH)--OH.HCl] registered a Ki below 500 nM.
The same measure, in the same setting: then `CN(C)[C@H](Cc1ccccc1)C(=O)N1CCCC1C(=O)NC(CCCNS(C)(=O)=O)B1OC2CC3CC(C3(C)C)C2(C)O1` (some centres unmarked) [Example 117, N,N-dimethyl-(D)Phe--Pro--boroOrn-(N-Methanesulfonyl)-C10 H16.HCl], with below 500 nM.
The same measure, in the same setting: then `CC1(C)C2CC3OB(C(Cc4cccc(C#N)c4)NC(=O)C4CCCN4)OC3(C)C1C2` (centres unmarked) [Example 26, H--Pro--boroPhe(m-CN)--C10 H16.HCl], with below 50000 nM; and “Boc--(D)Phe--Aze--boroOrn(CH=NH)--OH.HCl [Example 74]”, with below 500 nM; and `N#Cc1cccc(CC(NC(=O)C2CCCN2C(=O)C(Cc2ccccc2)NC(=O)CCC(=O)O)B(O)O)c1` (centres unmarked) [Example 44, Succinyl-(D)Phe--Pro--boroPhe(m-CN)--OH], with below 500 nM.
The same measure, in the same setting: then “PhCH2 SO2 --(D)Phe--Pro--boroArg(CH3)--OH.HCl [Example 61]”, with below 500 nM.
On human thrombin, “HOOCCH2 --(D)Phe--Pro--boroOrn(CONH2)--C10 H16.HCl [Example 111]” showed an inhibition constant Ki below 500 nM.
On the same count and under the same terms, the figure for `CC(=O)NC(Cc1ccccc1)C(=O)N1CCCC1C(=O)NC(CCCNC(N)=NC#N)B1OC2CC3CC(C3(C)C)C2(C)O1` (centres unmarked) [Example 15, Ac--(D)Phe--Pro--boroArg(CN)--C10 H16.HCl] is below 500 nM.
The same measure, in the same setting: then `CN[C@H](Cc1ccccc1)C(=O)N1CCCC1C(=O)NC(CCCOC)B1OC2CC3CC(C3(C)C)C2(C)O1` (some centres unmarked) [Example 142, N-methyl-(D)--Phe--Pro--boroGly[(CH2)3 --OCH3]--C10 H16], with below 500 nM.
Same read-out and setting: then `CC(=O)NC(Cc1ccccc1)C(=O)N1CCCC1C(=O)NC(Cc1ccc(C#N)cc1)B1OC2CC3CC(C3(C)C)C2(C)O1` (centres unmarked) [Example 16, Ac--(D)Phe--Pro--boroPhe(p-CN)--C10 H16], with below 500 nM; and “H--(D)Phe--Pro--boroOrn(CONH2)--C10 H16.HCl [Example 109]”, with below 500 nM; and `CN(C(=O)OC(C)(C)C)C(Cc1ccccc1)C(=O)N1CCCC1C(=O)NC(Cc1cccc(C#N)c1)B1OC2CC3CC(C3(C)C)C2(C)O1` (centres unmarked) [Example 33, N--Boc--N--CH3 --(D)Phe--Pro--boroPhe(m-CN)--C10 H16], with below 500 nM.
As to `COC(=O)C(Cc1cccc(C#N)c1)NC(=O)C1CCCN1C(=O)C(Cc1ccccc1)NC(=O)OC(C)(C)C` [Example 130, Boc--(D)Phe--Pro--(S)Phe(mCN)--OMe], the Ki at human thrombin was below 500 nM.
Still for that read-out and setting: then “Ac--Pro--boroPhe(m-CN)--C10 H16 [Example 35]”, with below 50000 nM; and “H--(D)Thiazolylalanine-Pro--boroPhe(m-CN)--C10 H16.HCl [Example 29]”, with below 500 nM; and “Boc--(D)Phe--Pro--boroOrn[C(NCN)SCH3 ]--C10 H16 [Example 107]”, with below 500 nM.
The same measure, in the same setting: then `CN(CC(=O)NC(CCCNC=N)B(O)O)C(=O)C(Cc1ccccc1)NS(=O)(=O)CCc1ccccc1` (centres unmarked) [Example 69, Phenethyl-SO2 --(D)Phe--Sar--boroOrn(CH=NH)--OH.HCl], with below 500 nM; and `CC1(C)C2CC3OB(C(CCCNC=N)NC(=O)c4ccc(-c5ccccc5)cc4)OC3(C)C1C2` (centres unmarked) [Example 76, 4-(Phenyl)benzoyl-boroOrn(CH=NH)--C10 H16.HCl], with below 500 nM; and “HOOCCH2 --(D)Phe--Pro--boroOrn[C(NCN)NHCH3 ]--C10 H16.HCl [Example 106]”, with below 500 nM.
The compound `CC1(C)C2CC3OB(C(CCCON)NC(=O)C4CCCN4C(=O)C(Cc4ccccc4)NS(=O)(=O)Cc4ccccc4)OC3(C)C1C2` (centres unmarked) [Example 103, PhCH2 SO2 --(D)Phe--Pro--boroGly[(CH2)3 --ONH2]--C10 H16.HCl] displayed a Ki at human thrombin below 500 nM.
Same read-out and setting: the figure for `CC1(C)C2CC3OB(C(Cc4cccc(C#N)c4)NC(=O)C4CCCN4C(=O)CSc4ncccn4)OC3(C)C1C2` (centres unmarked) [Example 41, (2-Pyrimidylthio)acetyl-Pro--boroPhe(m-CN)--C10 H16] is below 500 nM; for “PhSO2 --(D)Phe--Pro--boroOrn(CH=NH)--OH.HCl [Example 59]” it is below 500 nM; for `CC1(C)C2CC3OB(C(Cc4cccc(C#N)c4)NC(=O)C4CCCN4C(=O)CCc4cccnc4)OC3(C)C1C2` (centres unmarked) [Example 45, 3-Pyridylpropionyl-Pro--boroPhe(m-CN)--C10 H16] it is below 500 nM.
With “Hydrocinnamoyl-Pro--boroIrg(CH2 CH3)--OH.HBr [Example 53]”, at human thrombin, the Ki is below 50000 nM.
At human thrombin, `CCCS(=O)(=O)NC(Cc1ccccc1)C(=O)N1CCCC1C(=O)NC(CCCNC(=N)NC)B(O)O` (centres unmarked) [Example 64, CH3 CH2 CH2 SO2 --(D)Phe--Pro--boroArg(CH3)--OH.HCl] returned a Ki below 500 nM.
On to `COCCCC(NC(=O)C1CCCN1C(=O)C(N)Cc1ccccc1)B1OC2CC3CC(C3(C)C)C2(C)O1` (centres unmarked) [Example 139, H--(D)--Phe--Pro--boroGly[(CH2)3 --OCH3]--C10 H16], for which the inhibition constant Ki on human thrombin is below 500 nM.
Same read-out and setting: the figure for `CC(C)(C)OC(=O)NC(Cc1ccccc1)C(=O)N1CCCC1C(=O)NC(CCCONC(=N)N)B1OC2CC3CC(C3(C)C)C2(C)O1` (centres unmarked) [Example 104, Boc--(D)Phe--Pro--boroGly[(CH2)3 --ONHC(=NH)NH2]--C10 H16.HCl] is below 500 nM; for `CC(=O)NCC(=O)N[C@H](Cc1ccccc1)C(=O)N1CCC[C@H]1C(=O)NC(CCCNS(C)(=O)=O)B1OC2CC3CC(C3(C)C)C2(C)O1` (some centres unmarked) [Example 118, Ac--Gly--(D)Phe--Pro--BoroOrn(N-Methanesulfonyl)-C10 H16] it is below 500 nM.
Same read-out and setting: the figure for `CC(=O)NC(Cc1ccccc1)C(=O)N1CCCC1C(=O)NC(Cc1ccc(C(=N)N)cc1)B1OC2CC3CC(C3(C)C)C2(C)O1` (centres unmarked) [Example 22, Ac--(D)Phe--Pro--boroPhe(p-C(NH)NH2)--C10 H16.BSA] is below 500 nM.
On the same count and under the same terms, the figure for “N-alpha-[boroOrn(CH=NH)--OH]-(2-trans benzylcarboxamido)-cyclopentane-1-carboxamide.HCl [Example 71]” is below 500 nM; for `CC(=O)NC(Cc1ccccc1)C(=O)N1CCCC1C(=O)NC(CCCCC(=N)N)B1OC2CC3CC(C3(C)C)C2(C)O1` (centres unmarked) [Example 2, Ac--(D)Phe--Pro--NH--CH[(CH2)4 --C(NH)NH2]BO2 C10 H16.BSA] it is below 500 nM.
As to `CC1(C)C2CC3OB(C(Cc4cccc(C#N)c4)NC(=O)[C@@H]4CCCN4C(=O)/C=C/c4cccnc4)OC3(C)C1C2` (stereo in doubt) [Example 42, trans-3-(3-pyridyl)acryl-Pro--boroPhe(m-CN)--C10 H16], the inhibition constant (Ki) at human thrombin is below 500 nM.
On the same count and under the same terms, then “H--(D)Phe--Pro--boroPhe(m-CN)--C10 H16.HCl [Example 18]”, with below 500 nM.

One may read the Ki as a dissociation constant, usually derived from enzyme kinetics or from competition with a known ligand.

(Values after US5658885A, “Amidino and guanidino substituted boronic acid inhibitors of trypsin-like enzymes” (The DuPont Merck Pharmaceutical Company, priority 1994, dated 1997).)
